Here are results for 10 molecules from ChEMBL document CHEMBL1201862, “PubChem BioAssay data set” (2004).

For experiment [1], the target named is Glyceraldehyde-3-phosphate dehydrogenase (Homo sapiens, UniProt P04406).
Experiment [2] addresses T1, Alkaline phosphatase, tissue-nonspecific isozyme (Homo sapiens, UniProt P05186).
T1 sequence (P05186 whole entry): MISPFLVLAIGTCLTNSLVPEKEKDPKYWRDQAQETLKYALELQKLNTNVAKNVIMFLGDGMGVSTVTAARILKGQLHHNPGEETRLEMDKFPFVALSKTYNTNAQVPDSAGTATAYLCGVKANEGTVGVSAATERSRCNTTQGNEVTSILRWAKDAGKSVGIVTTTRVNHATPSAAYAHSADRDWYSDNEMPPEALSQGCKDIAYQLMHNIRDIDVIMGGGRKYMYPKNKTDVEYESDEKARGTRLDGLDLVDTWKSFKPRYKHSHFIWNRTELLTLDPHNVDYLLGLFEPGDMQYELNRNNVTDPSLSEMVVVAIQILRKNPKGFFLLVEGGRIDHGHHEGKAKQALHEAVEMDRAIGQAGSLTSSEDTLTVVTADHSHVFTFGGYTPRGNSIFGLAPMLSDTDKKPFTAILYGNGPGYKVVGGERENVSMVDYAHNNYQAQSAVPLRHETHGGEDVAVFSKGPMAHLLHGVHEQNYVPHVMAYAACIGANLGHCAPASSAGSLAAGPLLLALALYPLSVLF
Put plainly: potency against alkaline phosphatase TNAP – biochemical, luminescent, dose response, SAR follow-up (AID 1056).

Experiment [3] addresses T2, Calpain-2 catalytic subunit (Sus scrofa, UniProt P43367).
T2 sequence (P43367 whole entry): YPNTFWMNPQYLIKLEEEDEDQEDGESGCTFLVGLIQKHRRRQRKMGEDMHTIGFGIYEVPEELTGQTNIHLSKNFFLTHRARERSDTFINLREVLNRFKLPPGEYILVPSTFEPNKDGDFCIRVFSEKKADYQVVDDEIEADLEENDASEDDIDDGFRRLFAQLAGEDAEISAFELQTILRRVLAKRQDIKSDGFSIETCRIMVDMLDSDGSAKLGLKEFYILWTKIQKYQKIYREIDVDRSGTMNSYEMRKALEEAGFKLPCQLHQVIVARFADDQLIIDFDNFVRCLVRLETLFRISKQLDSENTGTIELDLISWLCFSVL
Put plainly: m-calpain protease blockers, concentration series – biochemical, fluorogenic peptide substrate, dose response (AID 1420). The format is functional.

The target of experiment [4] is Eukaryotic translation initiation factor 4E (Mus musculus, UniProt P63073). Put plainly: blockers of eIF4G binding by eIF4E – biochemical, TR-FRET, dose response (AID 855).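 Also: potency for disrupting eIF4E binding to eIF4GI seen as loss of FRET.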 In kind it is functional. In general terms: TR-FRET usually uses a lanthanide donor and a delayed reading to cut background.
In experiment [5] the target is T3, Tyrosine-protein phosphatase non-receptor type 7 (Homo sapiens, UniProt P35236).
T3 sequence (P35236 whole entry): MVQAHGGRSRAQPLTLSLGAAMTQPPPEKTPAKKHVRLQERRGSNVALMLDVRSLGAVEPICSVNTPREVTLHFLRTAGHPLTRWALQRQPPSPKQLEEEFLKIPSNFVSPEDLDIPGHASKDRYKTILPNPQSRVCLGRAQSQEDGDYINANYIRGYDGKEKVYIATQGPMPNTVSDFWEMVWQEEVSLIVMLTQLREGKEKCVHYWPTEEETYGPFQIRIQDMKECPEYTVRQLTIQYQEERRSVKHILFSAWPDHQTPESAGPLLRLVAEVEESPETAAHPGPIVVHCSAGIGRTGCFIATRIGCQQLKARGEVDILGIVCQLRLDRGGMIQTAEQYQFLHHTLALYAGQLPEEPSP
In kind it is functional.

Experiment [6] has as its target T4, Tyrosine-protein phosphatase non-receptor type 22 (Homo sapiens, UniProt Q9Y2R2).
T4 sequence (Q9Y2R2 whole entry): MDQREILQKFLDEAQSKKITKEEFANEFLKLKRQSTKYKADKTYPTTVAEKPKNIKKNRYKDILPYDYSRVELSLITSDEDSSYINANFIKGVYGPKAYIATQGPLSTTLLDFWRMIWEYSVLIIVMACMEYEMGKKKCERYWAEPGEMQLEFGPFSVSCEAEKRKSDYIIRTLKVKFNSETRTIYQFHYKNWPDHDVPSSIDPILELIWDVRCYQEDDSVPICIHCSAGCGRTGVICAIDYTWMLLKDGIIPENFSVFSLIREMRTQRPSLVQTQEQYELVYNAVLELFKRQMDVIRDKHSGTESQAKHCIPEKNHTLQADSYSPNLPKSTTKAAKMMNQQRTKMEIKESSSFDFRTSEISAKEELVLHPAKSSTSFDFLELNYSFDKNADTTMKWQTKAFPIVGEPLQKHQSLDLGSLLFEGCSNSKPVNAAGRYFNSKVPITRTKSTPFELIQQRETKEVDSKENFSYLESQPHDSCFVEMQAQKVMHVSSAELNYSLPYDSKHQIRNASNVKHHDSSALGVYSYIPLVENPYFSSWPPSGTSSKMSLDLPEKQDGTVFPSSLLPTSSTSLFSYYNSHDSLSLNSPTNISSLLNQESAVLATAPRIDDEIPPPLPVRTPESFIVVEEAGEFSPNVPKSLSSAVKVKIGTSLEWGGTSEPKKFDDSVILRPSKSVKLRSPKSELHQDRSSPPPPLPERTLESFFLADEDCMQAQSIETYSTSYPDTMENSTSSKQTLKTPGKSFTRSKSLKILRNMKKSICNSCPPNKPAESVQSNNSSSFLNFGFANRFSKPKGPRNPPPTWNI
The format is functional.

For experiment [7], the target named is T4, Tyrosine-protein phosphatase non-receptor type 22. In kind it is functional. The source holds these as a separate data set.
The nature of experiment [8]: THP-1 cell cytotoxicity, dose response, cytotoxicity control for non-replicating M. tuberculosis project (AID 489025). The format is functional.
Experiment [9] can be described thus: HepG2 cell cytotoxicity, dose response, cytotoxicity control for non-replicating M. tuberculosis project (AID 489018). The format is functional. Particulars: Mycobacterium tuberculosis.
A short description of experiment [10]: Vero E6 cell cytotoxicity, dose response, cytotoxicity control for non-replicating M. tuberculosis project, secondary assay (AID 492998). The format is functional, VeroE6. The settings on record: Vero C1008.
Experiment [11] can be described thus: cells. In kind it is functional.
Experiment [12] concerns the target T5, Replicative DNA helicase DnaB (Mycobacterium tuberculosis, UniProt P9WMR3).
T5 sequence (P9WMR3 whole entry): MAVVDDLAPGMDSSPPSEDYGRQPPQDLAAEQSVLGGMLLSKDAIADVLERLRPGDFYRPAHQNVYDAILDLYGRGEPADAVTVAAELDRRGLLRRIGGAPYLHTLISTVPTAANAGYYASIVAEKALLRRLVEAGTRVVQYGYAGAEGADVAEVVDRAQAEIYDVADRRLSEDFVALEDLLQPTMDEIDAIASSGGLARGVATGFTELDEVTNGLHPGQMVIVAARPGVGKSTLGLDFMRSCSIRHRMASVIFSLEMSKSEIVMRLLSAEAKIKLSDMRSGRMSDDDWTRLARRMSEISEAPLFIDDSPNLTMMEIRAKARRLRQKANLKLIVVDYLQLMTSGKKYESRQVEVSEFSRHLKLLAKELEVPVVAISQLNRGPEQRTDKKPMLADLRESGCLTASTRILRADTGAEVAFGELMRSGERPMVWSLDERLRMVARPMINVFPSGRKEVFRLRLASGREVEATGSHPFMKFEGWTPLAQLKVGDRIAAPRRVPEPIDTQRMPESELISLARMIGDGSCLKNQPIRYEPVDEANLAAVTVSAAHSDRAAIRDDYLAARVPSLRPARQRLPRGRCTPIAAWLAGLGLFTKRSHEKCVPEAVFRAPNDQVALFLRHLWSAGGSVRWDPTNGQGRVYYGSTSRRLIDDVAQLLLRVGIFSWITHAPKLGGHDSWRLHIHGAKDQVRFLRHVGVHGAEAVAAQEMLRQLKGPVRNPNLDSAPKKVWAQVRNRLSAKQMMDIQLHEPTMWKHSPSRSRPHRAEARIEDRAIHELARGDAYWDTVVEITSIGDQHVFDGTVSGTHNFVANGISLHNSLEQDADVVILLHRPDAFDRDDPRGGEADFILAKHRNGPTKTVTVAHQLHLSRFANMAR
Put plainly: DnaB intein splicing inhibitors, dose response, biochemical, cell-free fluorescence (AID 449749). In kind it is functional.

For experiment [13], the target named is T6, Protein RecA (Mycobacterium tuberculosis, UniProt P9WHJ3).
T6 sequence (P9WHJ3 whole entry): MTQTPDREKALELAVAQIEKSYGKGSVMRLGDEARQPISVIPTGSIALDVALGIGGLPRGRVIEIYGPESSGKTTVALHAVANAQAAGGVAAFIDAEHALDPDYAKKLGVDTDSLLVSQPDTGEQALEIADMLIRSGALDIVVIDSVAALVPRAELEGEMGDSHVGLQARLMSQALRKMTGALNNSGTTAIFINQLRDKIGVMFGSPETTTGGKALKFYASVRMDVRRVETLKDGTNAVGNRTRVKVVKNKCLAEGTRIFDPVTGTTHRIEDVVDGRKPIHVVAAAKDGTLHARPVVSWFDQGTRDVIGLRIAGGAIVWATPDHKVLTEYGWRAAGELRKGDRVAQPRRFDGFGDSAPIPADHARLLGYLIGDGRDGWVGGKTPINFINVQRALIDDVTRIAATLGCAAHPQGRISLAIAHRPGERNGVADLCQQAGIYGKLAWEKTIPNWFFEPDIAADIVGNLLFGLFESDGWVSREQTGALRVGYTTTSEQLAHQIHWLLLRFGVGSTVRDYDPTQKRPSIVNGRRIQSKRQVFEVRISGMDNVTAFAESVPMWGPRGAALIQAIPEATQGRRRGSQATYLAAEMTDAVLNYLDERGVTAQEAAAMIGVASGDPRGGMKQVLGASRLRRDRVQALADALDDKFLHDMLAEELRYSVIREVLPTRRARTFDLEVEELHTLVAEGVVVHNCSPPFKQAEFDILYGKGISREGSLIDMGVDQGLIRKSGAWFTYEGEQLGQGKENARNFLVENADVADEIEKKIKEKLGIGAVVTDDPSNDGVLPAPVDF
Put plainly: Fluorescence Cell-Free Homogeneous Dose Retest to Identify Inhibitors of RecA-Intein Splicing Activity. [Related pubchem assays (depositor defined):AID2097, AID2223, AID489010, AID492950]. The format is functional.

Experiment [14] can be described thus: viability of uninfected HEp-2 cells – cell-based, HTS, cytotoxicity control for RSV inhibitor project, dose response (AID 2410). Particulars: human respiratory syncytial virus. The format is functional.
Experiment [15] concerns Vero. Put plainly: cells. The format is functional, cell-based. Particulars: Chlorocebus sabaeus.
In experiment [16] the test system is Vero. Nature of the experiment: cells. The format is functional. Particulars: Chlorocebus sabaeus.

Activity calls are given as the source filed them. A value given as a limit tells only on which side of the number the result lay.

Eukaryotic translation initiation factor 4E, sequence (P63073 whole entry): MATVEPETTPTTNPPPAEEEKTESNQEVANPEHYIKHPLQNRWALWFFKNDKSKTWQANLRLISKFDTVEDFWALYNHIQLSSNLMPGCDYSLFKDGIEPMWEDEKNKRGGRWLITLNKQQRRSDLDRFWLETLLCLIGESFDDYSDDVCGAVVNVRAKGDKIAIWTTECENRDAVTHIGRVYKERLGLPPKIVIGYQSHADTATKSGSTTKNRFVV
Glyceraldehyde-3-phosphate dehydrogenase, sequence (P04406 whole entry): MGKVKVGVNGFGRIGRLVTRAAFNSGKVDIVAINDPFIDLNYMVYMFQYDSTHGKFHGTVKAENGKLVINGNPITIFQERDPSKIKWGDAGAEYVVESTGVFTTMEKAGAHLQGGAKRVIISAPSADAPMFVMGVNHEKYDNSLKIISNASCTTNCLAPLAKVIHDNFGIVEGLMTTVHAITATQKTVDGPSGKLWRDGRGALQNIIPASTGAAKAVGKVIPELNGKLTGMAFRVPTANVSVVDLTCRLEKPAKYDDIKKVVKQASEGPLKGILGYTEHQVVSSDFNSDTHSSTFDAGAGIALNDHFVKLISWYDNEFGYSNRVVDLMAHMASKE

One may read the IC50 as the concentration that gives 50% inhibition. Take `CCCCOc1ccc(-c2cc(C(=O)OC)[nH]n2)cc1`: the results for the IC50 in [1] and in experiment [2] were > 100 µM (not active) and 912 nM (active), respectively.
Regarding `Fc1c(F)c(C(F)(F)F)c(F)c(F)c1N1CCN(c2ccc3nnc(C(F)(F)F)n3n2)CC1`, the IC50 in [3] was 3.07 µM (not active); in experiment [4] it was > 64 µM (inactive).
For `COc1ccccc1N1CCN(C(=O)C2CCN(C(=O)c3ccccc3Cl)CC2)CC1`, the IC50 in [5], in [6] and in experiment [7] was > 79.4 µM (inactive) each time.
As for `Cc1ccc(N2C(=O)c3ccccc3C2(O)c2ncc[nH]2)cc1` (centres undefined), the IC50 in [4] is > 64 µM (inactive).
A word on the CC50: it is the concentration that lowers cell viability or growth by half. As a reminder, the AC50 is the concentration giving half of the maximal activity seen. The EC50 is the concentration at which the effect is half-maximal. On to `Cn1cnc([N+](=O)[O-])c1S(=O)(=O)c1cccc(Cl)c1`, for which the half-maximal cytotoxic concentration (CC50) in [8] was 15.5 µM (active); in [9], 13 µM (active); in experiment [10] it was 8.33 µM (active). Moreover, in experiment [11], the IC50 was 5.88 µM (active). In addition, the half-maximal activity concentration (AC50) in [12] is 27.7 µM (active). The EC50 in experiment [13] was 15.8 µM (active).
Regarding `COC(=O)c1cc(-c2cc(F)c(F)cc2F)n[nH]1`, the figures for the IC50 in experiment [1] and in experiment [2] were > 10 µM (inconclusive) and 1070 nM (active), respectively.
With `CC(C)CCNC(=O)c1ccc2c(Cl)c3c(nc2c1)CCC3`, the IC50 in [5], in [6] and in [7] was > 79.4 µM (inactive) each time.
In the case of `O=C(Cc1cccs1)N1CCN(c2ccc([N+](=O)[O-])cc2)CC1`, the IC50 in experiment [5], in [6] and in experiment [7] was > 79.4 µM (inactive) in each case.
Turning to `CCOc1ccccc1-c1cc(C(=O)N/N=C/c2ccc(O)c(OC)c2)c2ccccc2n1`, the CC50 in experiment [14] is 26.7 µM (active); in experiment [16], > 25 µM (active). The IC50 in experiment [5] is > 79.4 µM (inactive); in experiment [6] it was > 79.4 µM (inactive); in experiment [7], > 79.4 µM (inactive); in [15] it was > 25 µM (active).
For `CCCCCCCCCC(=O)N/N=C/c1ccc(C)s1`, the IC50 in experiment [4] was > 64 µM (inactive).
